Data from paper PMC10281575, “PfCRT mutations conferring piperaquine resistance in falciparum malaria shape the kinetics of quinoline drug binding and transport” (PLOS Pathogens, 2023).
Where “and” joins values, the source holds several entries; their conditions need not be identical. Equal entries are not always repeated. Where two headings read alike, the source gives them in different places.

How the values were obtained:
PfCRT^Dd2 [1] = target: T1, PfCRT^Dd2 (Plasmodium falciparum, UniProt Q8IBZ9, A220S/I356T/K76T/M74I/N326S/N75E/Q271E/R371I); test: Radiolabeled drug uptake (transport assay) in Xenopus laevis oocytes expressing PfCRT^Dd2; type: cell-based; design: expressed in transfected cells; host or cells: Xenopus laevis oocytes injected with in vitro transcribed RNA (pSP64T)
T1 sequence (Q8IBZ9 1-424 M74I/N75E/K76T/A220S/Q271E/N326S/I356T/R371I): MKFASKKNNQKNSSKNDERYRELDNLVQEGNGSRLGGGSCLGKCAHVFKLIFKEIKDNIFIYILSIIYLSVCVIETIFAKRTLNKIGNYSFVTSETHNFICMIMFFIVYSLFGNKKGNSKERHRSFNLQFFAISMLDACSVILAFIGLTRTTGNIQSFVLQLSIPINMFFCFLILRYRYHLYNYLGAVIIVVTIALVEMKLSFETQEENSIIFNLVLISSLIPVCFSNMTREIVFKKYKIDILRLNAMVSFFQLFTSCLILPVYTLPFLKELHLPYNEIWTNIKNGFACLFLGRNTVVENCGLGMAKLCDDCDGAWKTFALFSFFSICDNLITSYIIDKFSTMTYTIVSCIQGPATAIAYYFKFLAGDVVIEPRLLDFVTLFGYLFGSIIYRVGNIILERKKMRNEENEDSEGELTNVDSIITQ
Procedure: The two kinetic parameters were derived by fitting the Michaelis-Menten equation to the kinetic data (Table 1).
Adult female X. laevis frogs (purchased from NASCO) were anesthetized by submersion in a solution of 0.3% (w/v) 3-amino benzoate methanesulfonate for 15 min. Sections of the ovary were surgically removed and placed in Ca^2+-free ND96 buffer supplemented with 0.1% collagenase D (w/v; Roche), 0.5% BSA (w/v) and 9 mM Na2HPO4 at 18°C for 14–16 h while gently shaking. The oocytes were then washed several times with ND96 buffer (5 mM HEPES, pH 7.5, 96 mM NaCl, 2 mM KCl, 1.8 mM CaCl2, 1 mM MgCl2), supplemented with […] gentamycin. Healthy-looking stage V-VI oocytes were manually selected and randomly grouped for injection. A codon-optimized coding sequence of PfCRT was subcloned into the pSP64T expression vector and subsequently linearized using the restriction endonuclease BamHI or SalI (New England Biolabs GmbH). RNA for injection was transcribed in vitro using the mMESSAGE mMACHINE SP6 Transcription kit (Ambion), diluted with nuclease-free water to a final concentration of 0.6 μg/μL and stored at -80°C. RNA was injected using precision-bore glass capillary tubes (3.5-inch glass capillaries; Drummond Scientific Co.), which were pulled on a vertical puller (P-87 Flaming/Brown micropipette puller, Sutter Instrument Co.) and graduated. The micropipettes were connected to a microinjector (Nanoject II Auto-Nanoliter Injector, Drummond Scientific Co.). Injection was conducted under stereomicroscopic control. 50 nL of nuclease-free water alone (control oocytes) or 50 nL of nuclease-free water containing 30 ng of RNA was injected per oocyte. Injected oocytes were kept for 72 h at 18°C in ND96 buffer with two daily buffer changes before being used for further experiments.
Drug transport assays were performed as previously described. Briefly, measurements of radiolabeled drug uptake were made over 1 h, unless otherwise specified. […] Where specified, one or more unlabeled drugs were also present at the indicated concentrations. […] The uptake assays were terminated by removing the oocytes from the reaction medium and washing them three times with 2 mL of ice-cold ND96 buffer. Each oocyte was transferred to a separate scintillation vial and lysed by the addition of 200 μL of a 5% SDS solution. The radioactivity in the sample was measured using a liquid scintillation analyser Tri-Carb 4910 TR (PerkinElmer). Water-injected oocytes were analyzed in parallel as a negative control. The buffer from each condition was measured in duplicate in parallel to each experiment to transform counts per minute into pmol of drug. Drug uptake attributable to PfCRT was determined by subtracting the background uptake from water-injected oocytes from that of PfCRT-expressing oocytes. In all cases, at least three independent experiments were performed on oocytes from different frogs, and for each condition in an experiment, measurements were made from 10 oocytes per treatment.

PfCRT^Dd2 [2] = target: T1, PfCRT^Dd2; settings: read-out: apparent Km for CQ on PfCRT^Dd2, cited from earlier work
[3] = 50 μM CQ, pH 6.0, total uptake, one value per biological replicate
[4] = 50 μM CQ, pH 6.0, water-injected uptake subtracted, per replicate
[5] = 60 min, pH 6, per biological replicate

CCN(CC)CCCC(C)Nc1ccnc2cc(Cl)ccc12 (stereo not shown) [CQ, chloroquine]
PfCRTDd2-mediated CQ uptake at 10 µM CQ (PfCRT^Dd2 [1]; 10 µM CQ, single replicates): 0.97 pmol oocyte-1 h-1 and 1.33 pmol oocyte-1 h-1 and 1.00 pmol oocyte-1 h-1
PfCRTDd2 uptake of CQ at 10 min (PfCRT^Dd2 [1]; [3]): 5.12 pmol oocyte-1 and 4.60 pmol oocyte-1 and 2.93 pmol oocyte-1 and 4.96 pmol oocyte-1
PfCRTDd2 uptake of CQ at 30 min (PfCRT^Dd2 [1]; [3]): 6.73 pmol oocyte-1 and 14.34 pmol oocyte-1 and 5.71 pmol oocyte-1
PfCRTDd2 uptake of CQ at 60 min (PfCRT^Dd2 [1]; [3]): 19.28 pmol oocyte-1 and 12.33 pmol oocyte-1 and 10.23 pmol oocyte-1 and 14.77 pmol oocyte-1
PfCRTDd2 uptake of CQ at 90 min (PfCRT^Dd2 [1]; [3]): 15.72 pmol oocyte-1 and 19.85 pmol oocyte-1 and 18.63 pmol oocyte-1 and 19.17 pmol oocyte-1
PfCRTDd2 uptake of CQ at 120 min (PfCRT^Dd2 [1]; [3]): 20.73 pmol oocyte-1 and 30.99 pmol oocyte-1 and 21.07 pmol oocyte-1
PfCRTDd2 uptake of CQ at 180 min (PfCRT^Dd2 [1]; [3]): 26.87 pmol oocyte-1 and 30.32 pmol oocyte-1 and 26.73 pmol oocyte-1 and 25.67 pmol oocyte-1
PfCRTDd2-mediated CQ uptake at 10 min (PfCRT^Dd2 [1]; [4]): 1.03 pmol oocyte-1 and 0.90 pmol oocyte-1 and 1.98 pmol oocyte-1 and 0.91 pmol oocyte-1
PfCRTDd2-mediated CQ uptake at 30 min (PfCRT^Dd2 [1]; [4]): 1.52 pmol oocyte-1 and 5.01 pmol oocyte-1 and 4.35 pmol oocyte-1
PfCRTDd2-mediated CQ uptake at 60 min (PfCRT^Dd2 [1]; [4]): 4.91 pmol oocyte-1 and 4.76 pmol oocyte-1 and 7.49 pmol oocyte-1 and 5.04 pmol oocyte-1
PfCRTDd2-mediated CQ uptake at 120 min (PfCRT^Dd2 [1]; [4]): 9.09 pmol oocyte-1 and 10.40 pmol oocyte-1 and 9.67 pmol oocyte-1
PfCRTDd2-mediated CQ uptake at 180 min (PfCRT^Dd2 [1]; [4]): 13.62 pmol oocyte-1 and 9.61 pmol oocyte-1 and 9.37 pmol oocyte-1 and 10.85 pmol oocyte-1
PfCRTDd2-mediated CQ uptakeat 90 min (PfCRT^Dd2 [1]; [4]): 7.12 pmol oocyte-1 and 4.31 pmol oocyte-1 and 9.50 pmol oocyte-1 and 9.09 pmol oocyte-1
PfCRTDd2-mediated CQ uptake at 50 µM CQ (PfCRT^Dd2 [1]; 50 µM CQ, single replicates): 3.98 pmol oocyte-1 h-1 and 2.97 pmol oocyte-1 h-1 and 3.90 pmol oocyte-1 h-1 and 4.91 pmol oocyte-1 h-1 and 4.76 pmol oocyte-1 h-1 and 7.49 pmol oocyte-1 h-1 and 10.46 pmol oocyte-1 h-1 and 5.04 pmol oocyte-1 h-1
PfCRTDd2-mediated CQ uptake at 100 µM CQ (PfCRT^Dd2 [1]; 100 µM CQ, single replicates): 9.74 pmol oocyte-1 h-1 and 9.30 pmol oocyte-1 h-1 and 7.99 pmol oocyte-1 h-1
PfCRTDd2-mediated CQ uptake at 200 µM CQ (PfCRT^Dd2 [1]; 200 µM CQ, single replicates): 17.86 pmol oocyte-1 h-1 and 9.84 pmol oocyte-1 h-1 and 13.66 pmol oocyte-1 h-1 and 12.77 pmol oocyte-1 h-1
PfCRTDd2-mediated CQ uptake at 300 µM CQ (PfCRT^Dd2 [1]; 300 µM CQ, single replicates): 20.89 pmol oocyte-1 h-1 and 20.25 pmol oocyte-1 h-1 and 12.53 pmol oocyte-1 h-1
PfCRTDd2-mediated CQ uptake at 400 µM CQ (PfCRT^Dd2 [1]; 400 µM CQ, single replicates): 20.30 pmol oocyte-1 h-1 and 20.79 pmol oocyte-1 h-1 and 20.10 pmol oocyte-1 h-1
PfCRTDd2-mediated CQ uptake at 500 µM CQ (PfCRT^Dd2 [1]; 500 µM CQ, single replicates): 20.49 pmol oocyte-1 h-1 and 20.91 pmol oocyte-1 h-1 and 20.75 pmol oocyte-1 h-1 and 25.01 pmol oocyte-1 h-1
PfCRTDd2-mediated CQ uptake at 10 µM CQ (PfCRT^Dd2 [1]; [5]): 0.97 pmol oocyte-1 h-1 and 1.33 pmol oocyte-1 h-1 and 1.00 pmol oocyte-1 h-1
PfCRTDd2-mediated CQ uptake at 50 µM CQ (PfCRT^Dd2 [1]; [5]): 3.98 pmol oocyte-1 h-1 and 2.97 pmol oocyte-1 h-1 and 3.90 pmol oocyte-1 h-1 and 4.91 pmol oocyte-1 h-1 and 4.76 pmol oocyte-1 h-1 and 7.49 pmol oocyte-1 h-1 and 10.46 pmol oocyte-1 h-1 and 5.04 pmol oocyte-1 h-1
PfCRTDd2-mediated CQ uptake at 100 µM CQ (PfCRT^Dd2 [1]; [5]): 9.74 pmol oocyte-1 h-1 and 9.30 pmol oocyte-1 h-1 and 7.99 pmol oocyte-1 h-1
PfCRTDd2-mediated CQ uptake at 200 µM CQ (PfCRT^Dd2 [1]; [5]): 17.86 pmol oocyte-1 h-1 and 9.84 pmol oocyte-1 h-1 and 13.66 pmol oocyte-1 h-1 and 12.77 pmol oocyte-1 h-1
PfCRTDd2-mediated CQ uptake at 300 µM CQ (PfCRT^Dd2 [1]; [5]): 20.89 pmol oocyte-1 h-1 and 20.25 pmol oocyte-1 h-1 and 12.53 pmol oocyte-1 h-1
PfCRTDd2-mediated CQ uptake at 400 µM CQ (PfCRT^Dd2 [1]; [5]): 20.30 pmol oocyte-1 h-1 and 20.79 pmol oocyte-1 h-1 and 20.10 pmol oocyte-1 h-1
PfCRTDd2-mediated CQ uptake at 500 µM CQ (PfCRT^Dd2 [1]; [5]): 20.49 pmol oocyte-1 h-1 and 20.91 pmol oocyte-1 h-1 and 20.75 pmol oocyte-1 h-1 and 25.01 pmol oocyte-1 h-1
Vmax, maximal velocity of drug transport (PfCRT^Dd2 [1]; Michaelis-Menten fit, 10-500 μM drug, 60 min, pH 6): 33 ± 1 pmol oocyte^-1 h^-1
Km (PfCRT^Dd2 [1]; Michaelis-Menten fit, 10-500 μM drug, 60 min, pH 6, read-out: KM, Michaelis constant): 260 ± 10 µM
PfCRTDd2-mediated CQ transport (PfCRT^Dd2 [1]; S6 Fig, per biological replicate): 7.120 pmol oocyte-1 h-1 and 4.130 pmol oocyte-1 h-1 and 5.320 pmol oocyte-1 h-1
Km (PfCRT^Dd2 [2]; ref Bellanca et al., 2014): 250 ± 30 µM
Km (PfCRT^Dd2 [2]; ref Martin et al. 2009): 245 ± 3 µM
